Results taken from ChEMBL document CHEMBL4420062, “Tfpi inhibitors and methods of use” (2013).
Where a SMILES comes first, the peptide text is derived from it. [ ]: non-standard residue; d: D form. Tle = CC(C)(C)[C@H](N)C(=O)O; Aib = CC(C)(N)C(=O)O

Experiments:
[1] = Stability in human plasma assessed as parent compound remaining after 24 hrs; assay type: ADME, cell-free; conditions: read-out: Stability
[2] = Stability in mouse plasma assessed as parent compound remaining after 24 hrs; assay type: ADME, cell-free; conditions: read-out: Stability

Compound	remaining at 24 h [1] [%]	remaining at 24 h [2] [%]
CC(=O)N[C@@H](Cc1ccccc1)C(=O)N[C@@H](CCC(N)=O)C(=O)N[C@@H](CO)C(=O)N[C@@H](CCCCN)C(=O)N1CCC[C@@H]1C(=O)N[C@@H](CC(N)=O)C(=O)N[C@H](C(=O)N[C@@H](Cc1cnc[nH]1)C(=O)N[C@H](C(=O)N[C@@H](CC(=O)O)C(=O)N[C@@H]1CSSCC[C@@H](C(=O)N[C@@H](CCCNC(=N)N)C(=O)N[C@@H](CC(C)C)C(=O)N[C@@H](C)C(=O)N[C@@H](C)C(=O)N[C@@H](CCCCN)C(=O)N[C@@H](CC(C)C)C(N)=O)NC(=O)[C@H](Cc2ccccc2)NC(=O)[C@H](Cc2ccc(O)cc2)NC1=O)C(C)(C)C)C(C)C	61.5	11.1
CCCCCC(=O)N[C@@H](Cc1ccccc1)C(=O)N[C@@H](CCC(N)=O)C(=O)N[C@@H](CO)C(=O)N[C@@H](CCCCN)C(=O)N1CCC[C@@H]1C(=O)N[C@@H](CC(N)=O)C(=O)N[C@H](C(=O)N[C@@H](Cc1cnc[nH]1)C(=O)N[C@H](C(=O)N[C@@H](CC(=O)O)C(=O)N[C@H](C)C(=O)N[C@@H](Cc1ccc(O)cc1)C(=O)N[C@@H](Cc1ccccc1)C(=O)N[C@@H](CCC(=O)O)C(=O)N[C@@H](CCCNC(=N)N)C(=O)N[C@@H](CC(C)C)C(=O)NC(C)(C)C(=O)N[C@@H](C)C(=O)N[C@@H](CCCCN)C(=O)N[C@@H](CC(C)C)C(N)=O)C(C)(C)C)C(C)C	97.4	39.9
CC(=O)N[C@@H](Cc1ccccc1)C(=O)N[C@@H](CCC(N)=O)C(=O)N[C@@H](CO)C(=O)N[C@@H](CCCCN)C(=O)N1CCC[C@@H]1C(=O)N[C@@H](CC(N)=O)C(=O)N[C@H](C(=O)N[C@@H](Cc1cnc[nH]1)C(=O)N[C@H](C(=O)N[C@@H](CC(=O)O)C(=O)NCC(=O)N[C@@H](Cc1ccc(O)cc1)C(=O)N[C@@H](Cc1ccccc1)C(=O)N[C@@H](CCC(=O)O)C(=O)N[C@@H](CCCNC(=N)N)C(=O)N[C@@H](CC(C)C)C(=O)NC(C)(C)C(=O)N[C@@H](C)C(=O)N[C@@H](CCCCN)C(=O)N[C@@H](CC(C)C)C(N)=O)C(C)(C)C)C(C)C (Ac-FQSK[dP]NVH[Tle]DGYFERL[Aib]AKL-NH2)	81.9	42.6
CC(=O)N[C@@H](Cc1cccc2ccccc12)C(=O)N[C@@H](CCC(N)=O)C(=O)N[C@@H](CO)C(=O)N[C@@H](CCCCN)C(=O)N1CCC[C@@H]1C(=O)N[C@@H](CC(N)=O)C(=O)N[C@H](C(=O)N[C@@H](Cc1cnc[nH]1)C(=O)N[C@H](C(=O)N[C@@H](CC(=O)O)C(=O)NCC(=O)N[C@@H](Cc1ccc(O)cc1)C(=O)N[C@@H](Cc1ccccc1)C(=O)N[C@@H](CCC(=O)O)C(=O)N[C@@H](CCCNC(=N)N)C(=O)N[C@@H](CC(C)C)C(=O)NC(C)(C)C(=O)N[C@@H](C)C(=O)N[C@@H](CCCCN)C(=O)N[C@@H](CC(C)C)C(N)=O)C(C)C)C(C)C	19.3	0
CC(=O)N[C@@H](Cc1ccccc1)C(=O)N[C@@H](CCC(N)=O)C(=O)N[C@@H](CO)C(=O)N[C@@H](CCCCN)C(=O)N1CCC[C@@H]1C(=O)N[C@@H](CC(N)=O)C(=O)N[C@H](C(=O)N[C@@H](Cc1cnc[nH]1)C(=O)N[C@H](C(=O)N1CCC[C@H]1C(=O)N[C@H](CS)C(=O)N[C@@H](Cc1ccc(O)cc1)C(=O)N[C@@H](Cc1csc2ccccc12)C(=O)N[C@@H](CCS)C(=O)N[C@@H](CCCNC(=N)N)C(=O)N[C@@H](CC(C)C)C(=O)NC(C)(C)C(=O)N[C@H](C)C(=O)N[C@@H](CCCCN)C(=O)N[C@@H](CC(C)C)C(N)=O)C(C)C)C(C)C	77.7	28.3
CC(=O)N[C@@H](Cc1ccccc1)C(=O)N[C@@H](CCC(N)=O)C(=O)N[C@@H](CO)C(=O)N[C@@H](CCCCN)C(=O)N1CCC[C@@H]1C(=O)N[C@@H](CC(N)=O)C(=O)N[C@H](C(=O)N[C@@H](Cc1ccc2ccccc2c1)C(=O)N[C@H](C(=O)N[C@@H](CC(=O)O)C(=O)N[C@H](C)C(=O)N[C@@H](Cc1ccc(O)cc1)C(=O)N[C@@H](Cc1ccccc1)C(=O)N[C@@H](CCC(=O)O)C(=O)N[C@@H](CCCNC(=N)N)C(=O)N[C@@H](CC(C)C)C(=O)NC(C)(C)C(=O)N[C@@H](C)C(=O)N[C@@H](CCCCN)C(=O)N[C@@H](CC(C)C)C(N)=O)C(C)(C)C)C(C)C	88.8	51.1
